Reference: PubChem BioAssay (NCI)
Where “and” joins values, the source holds several entries; their conditions need not be identical. Equal entries are not always repeated.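 Cultured in 96-well plates, cells were exposed to test compound for 48 hours across five concentrations. Here, GI50 denotes the concentration required for 50% inhibition of growth. TGI denotes the concentration required for complete inhibition of growth.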

How the values were obtained:
Assay in all cases: NCI-60 cell line screen, 48 h
HCT-116 colon = system: HCT-116 colon
HCT-15 colon = system: HCT-15 colon
KM12 colon = system: KM12 colon
MDA-MB-435 = system: MDA-MB-435
PC-3 prostate = system: PC-3 prostate
RPMI-8226 leukemia = system: RPMI-8226 leukemia
SW-620 colon = system: SW-620 colon
DU-145 prostate = system: DU-145 prostate
HL-60(TB) leukemia = system: HL-60(TB) leukemia

Compound	TGI (HCT-116 colon)	TGI (HCT-15 colon)	TGI (KM12 colon)	TGI (MDA-MB-435)	TGI (PC-3 prostate)	TGI (RPMI-8226 leukemia)	TGI (SW-620 colon)	TGI (DU-145 prostate)	TGI (HL-60(TB) leukemia)	GI50 (DU-145 prostate)	GI50 (HL-60(TB) leukemia)	GI50 (RPMI-8226 leukemia)	GI50 (HCT-116 colon)	GI50 (HCT-15 colon)	GI50 (KM12 colon)	GI50 (MDA-MB-435)	GI50 (PC-3 prostate)	GI50 (SW-620 colon)
CCc1n[nH]c(=O)n1N1C(=O)C2CC=CCC2C1=O (configuration not stated)	> 100 µM	> 100 µM	> 100 µM	> 100 µM	> 100 µM	> 100 µM	> 100 µM											
O=C(CN1CCN(C(=O)OCc2ccccc2)CCN(CC(=O)N2CCCCC2)CCN(C(=O)OCc2ccccc2)CC1)N1CCCCC1	18.5 µM	> 50.6 µM	46.3 µM	31.2 µM	37.3 µM	37.3 µM	> 53.5 µM	> 54.8 µM	> 35.4 µM									
CC(C)OP(=O)(CN(C)/C(F)=N\C(F)(F)F)OC(C)C	> 100 µM	> 100 µM	> 100 µM	> 100 µM	> 100 µM		> 100 µM	> 100 µM	> 100 µM									
COc1cc([C@@H]2c3cc4c(cc3[C@@H](NCCNCCO)[C@H]3COC(=O)[C@H]23)OCO4)cc(OC)c1O	44 µM and 32.9 µM	> 100 µM	> 40.2 µM and 17.5 µM	35 µM and 31.6 µM	> 100 µM	3.84 µM	> 100 µM	9.83 µM and > 33.9 µM		1.82 µM and 3.88 µM	0.173 µM and 0.0466 µM	0.46 µM and 0.522 µM						
c1ccc(C2SCC3=Nc4ccccc4CN32)cc1 (configuration not stated)	51.9 µM	> 100 µM	> 100 µM	> 100 µM	> 100 µM	> 100 µM	> 100 µM	> 100 µM	89.9 µM									
COP(C)(=O)/C(Cc1ccccc1)=N\O (configuration not stated)	> 100 µM	> 100 µM		> 100 µM	> 100 µM	> 100 µM	> 100 µM	> 100 µM	> 100 µM									
O=C1OCC(C#Cc2ccccc2)=C1Cl	1.38 µM	15.7 µM	12.1 µM	42.6 µM	5.67 µM	4.61 µM	5.07 µM	11.8 µM		1.6 µM		1.56 µM	0.322 µM	4.36 µM	2.65 µM	6.92 µM	1.99 µM	0.83 µM
CCOc1ccc2c(c1)/C(=C(\C(Cl)=C(Cl)Cl)[N+](=O)[O-])N2	> 100 µM	> 100 µM	> 100 µM	> 100 µM	> 100 µM	> 100 µM	> 100 µM	> 100 µM										
CC1(c2ccc(Cl)cc2)CC(c2ccc(Cl)cc2)=C(C#N)C(=C(C#N)C#N)N1 (configuration not stated)	31.7 µM	32.5 µM	40.3 µM	34.7 µM	31.9 µM	> 100 µM	> 100 µM	28.2 µM	78.6 µM									
O=C(N/N=C1\CCc2ccccc2C1)N/N=C1\CCc2ccccc2C1	> 10 µM	> 10 µM	> 10 µM	> 10 µM	> 10 µM	> 10 µM	> 10 µM	> 10 µM	> 10 µM									
CCOc1ccccc1/C=C1\NC(=O)N(/C=C2\C(=O)Oc3ccccc3C2=O)C1=O	> 100 µM	> 100 µM	> 100 µM	> 100 µM	> 100 µM		> 100 µM	> 100 µM	74.4 µM									
CC(=O)Nc1ccc(CNc2cc(=O)[nH]c(=O)[nH]2)cc1	> 100 µM	> 100 µM	> 100 µM	> 100 µM	> 100 µM	> 100 µM	> 100 µM	> 100 µM	> 100 µM									
CC(NS(C)(=O)=O)c1ccccc1 (configuration not stated)	> 100 µM	> 100 µM	> 100 µM	> 100 µM	> 100 µM	> 100 µM	> 100 µM	> 100 µM	> 100 µM									
c1ccc(N=C2SC(=NNc3ccccc3)SC2=Nc2ccccc2)cc1	> 100 µM	> 100 µM	> 100 µM	> 100 µM	> 100 µM	> 100 µM	> 100 µM	> 100 µM	> 100 µM									
COc1ccc(Cc2nc3cc(C(F)(F)F)ccc3n2CCCN(C)C)cc1		48.8 µM	30.3 µM	29.7 µM	75 µM		44.7 µM	40.4 µM	27.1 µM									
NC1C/C(=N\O)c2c(I)sc(I)c21 (configuration not stated)	15.2 µM	30.6 µM	27.7 µM	27.2 µM	31.6 µM	> 42 µM	29.4 µM	31.4 µM	> 100 µM									
O=C(c1cc(Cl)cc(Cl)c1)N(C(=S)OC12CC3CC(CC(C3)C1)C2)c1ccccc1	> 100 µM	> 100 µM	> 100 µM	> 100 µM	> 100 µM		> 100 µM	> 100 µM	84.5 µM									
C/C(=N\Nc1ccc([N+](=O)[O-])cc1[N+](=O)[O-])c1ccc2ccccc2n1	> 100 µM	> 100 µM	> 100 µM	> 100 µM	> 100 µM	> 100 µM	> 100 µM	> 100 µM										
CCP(=O)(CC)C(Cl)(Cl)C(O)C(C)(C)C (configuration not stated)	> 100 µM	> 100 µM		> 100 µM	> 100 µM	> 100 µM	> 100 µM	> 100 µM										
O=C1c2ccccc2CC12Cc1cc3c(cc1C2=O)CCC3 (configuration not stated)	> 100 µM	> 100 µM		> 100 µM	> 100 µM	> 100 µM	> 100 µM	> 100 µM	> 100 µM									
C=C=C(C)[Si](C)(C)C	> 100 µM	> 100 µM	> 100 µM	> 100 µM	> 100 µM	> 100 µM	> 100 µM	> 100 µM	> 100 µM									
Nc1nc(Cl)cc(NCC2(CO)CCC(Cc3ccccc3)C2)n1 (configuration not stated)	> 100 µM	> 100 µM	49.8 µM	33.8 µM	> 96.1 µM	62.7 µM	> 100 µM	> 100 µM	26.1 µM									
CC(C)(C)c1ccc(CN2CCN(C(c3ccccc3)c3ccc(Cl)cc3)CC2)cc1 (configuration not stated)	> 100 µM	> 100 µM	> 100 µM	> 100 µM	> 100 µM	> 100 µM	> 100 µM	> 100 µM										
